Experimental findings from ChEMBL document CHEMBL1131778, “Solid phase synthesis of quinolones” (1999) are described below.

One may read the inhibition as the share of the control response that was lost under treatment.

Molecules are shown by their SMILES.

Assay [1] concerns Brugia malayi. Put plainly: In vitro anti-filarial activity against female adult worms of Brugia. malayi at 100 uM concentration, using MTT reduction potential assay. It is filed as functional.
Assay [2] concerns Brugia malayi. Put plainly: In vitro anti-filarial activity against male adult worms of Brugia. malayi at 100 uM concentration, using MTT reduction potential assay. It counts as functional.
Assay [3] relates to Brugia malayi. Put plainly: In vitro anti-filarial activity against female adult worms of Brugia. malayi at 100 uM concentration, using motility assay. It counts as functional.
Assay [4] has as its system Brugia malayi. Put plainly: In vitro anti-filarial activity against male adult worms of Brugia. malayi at 100 uM concentration, using motility assay. It counts as functional.
Assay [5] has as its system Brugia malayi. Put plainly: In vitro anti-filarial activity against female adult worms of Brugia. malayi at 100 uM concentration, using motility assay. It counts as functional.
Assay [6] concerns Brugia malayi. Put plainly: In vitro anti-filarial activity against female adult worms of Brugia. malayi at 100 uM concentration, using motility assay; D = Dead worms. It counts as functional, organism-based.
Assay [7] relates to Brugia malayi. Put plainly: In vitro anti-filarial activity against male adult worms of Brugia. malayi at 100 uM concentration, using motility assay D = Dead worms. It is filed as functional, organism-based.
Assay [8] deals with Brugia malayi. Put plainly: In vitro anti-filarial activity of the compound against male adult worms of Brugia. malayi at 100 uM concentration, using MTT reduction potential assay. It counts as functional. For orientation: Tetrazolium dyes change colour on reduction, which living cells bring about.
Assay [9] has as its system Brugia malayi. Put plainly: In vitro anti-filarial activity against male adult worms of Brugia. malayi at 100 uM concentration, using motility assay; D = Dead worms. It counts as functional, organism-based.

As to `O=C(O)c1ccc2ncc(C(=O)NC3CCCCCC3)c(O)c2c1`, the inhibition at 100 µM in assay [1] and in assay [2] was 0% in each case. Besides, the Mortality in assay [3] and in assay [4] was 3 throughout.
Take `CCOC(=O)c1cnc2ccc(C(=O)O)cc2c1O`: the inhibition at 100 µM in [1] and in [2] was 0% throughout. Also, the Mortality in assay [3] and in [4] was 3 in each case.
For `O=C(O)c1ccc2ncc(C(=O)NC3CCCCC3)c(O)c2c1`, the inhibition at 100 µM in assay [1] and in [2] was 0% each time. In addition, the Mortality in assay [5] and in [4] was 3 throughout.
`CCCCCCCCNC(=O)c1cnc2ccc(C(=O)O)cc2c1O`: the inhibition at 100 µM in assay [1] came to 84.8%; in assay [2] it was 62.8%. The Mortality entry in assay [6] and in assay [7] was “Dead worms” in each case.
For `CCCCCCNC(=O)c1cnc2ccc(C(=O)O)cc2c1O`, the inhibition at 100 µM in [1] is 64.8%; in assay [8] it was 58.8%. Moreover, the Mortality result in assay [6] and in assay [9] was “Dead worms” throughout.
